# Test results taken from US20140314740A1, “COMPOSITIONS AND METHODS FOR THE PREVENTION OR TREATMENT OF DIABETIC COMPLICATIONS” (The Johns Hopkins University, priority 2011, published 2014).
# “Also recorded” adds a separate entry of the source.
# Assays:
# GLUT1 [1] = target: T1, GLUT1 (Mus musculus, UniProt P17809); test: Glucose measurements in retina, brain and red blood cells (RBC) of streptozotocin-diabetic mice; type: in vivo, C57BL/6 mice; conditions: for retinal glucose levels: diabetic mice; for retinal glucose (summary statement): systemic treatment of diabetic mice, dose not given
# T1 sequence (P17809 1-492): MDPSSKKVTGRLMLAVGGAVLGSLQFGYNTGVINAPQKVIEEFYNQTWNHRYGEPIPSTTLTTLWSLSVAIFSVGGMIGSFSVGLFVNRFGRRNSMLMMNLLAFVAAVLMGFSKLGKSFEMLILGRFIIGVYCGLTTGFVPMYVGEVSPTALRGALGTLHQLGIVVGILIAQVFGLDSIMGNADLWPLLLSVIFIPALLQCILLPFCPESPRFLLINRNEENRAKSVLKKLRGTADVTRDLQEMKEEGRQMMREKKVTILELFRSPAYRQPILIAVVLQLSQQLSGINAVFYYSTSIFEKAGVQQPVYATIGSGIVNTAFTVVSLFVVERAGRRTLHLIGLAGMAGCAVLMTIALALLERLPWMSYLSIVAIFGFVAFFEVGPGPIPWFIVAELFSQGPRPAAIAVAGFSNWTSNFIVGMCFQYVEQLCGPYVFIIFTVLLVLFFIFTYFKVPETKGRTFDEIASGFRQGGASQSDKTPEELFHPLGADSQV
# superoxide radicals = test: Superoxide radical assay (hydroethidine-induced fluorescence) in retinal homogenates of diabetic mice; type: in vivo, C57BL/6 mice; conditions: 1 month of diabetes; 1,9-dideoxyforskolin 0.1 mg/kg daily
# Experimental: Superoxide radicals were measured in retinal homogenates by measuring dihydroethidine-induced fluorescence (Georgiou et al., 2008; Chen et al., 2009). Briefly, 200 μl reaction mixtures of freshly prepared retinal homogenates (20 μg protein) containing 2.5 μM dihydroethidium and 0.05 μg/μl salmon testes DNA were placed in 96-well microplates at 37° C. for 30 min. The fluorescence was measured at an excitation of 480 nm and an emission of 610 nm. Each sample was assayed in triplicate.
# GLUT1 [2] = target: T2, GLUT1 (Homo sapiens, UniProt P11166); conditions: literature statement; cited from earlier work
# T2 sequence (P11166 1-492): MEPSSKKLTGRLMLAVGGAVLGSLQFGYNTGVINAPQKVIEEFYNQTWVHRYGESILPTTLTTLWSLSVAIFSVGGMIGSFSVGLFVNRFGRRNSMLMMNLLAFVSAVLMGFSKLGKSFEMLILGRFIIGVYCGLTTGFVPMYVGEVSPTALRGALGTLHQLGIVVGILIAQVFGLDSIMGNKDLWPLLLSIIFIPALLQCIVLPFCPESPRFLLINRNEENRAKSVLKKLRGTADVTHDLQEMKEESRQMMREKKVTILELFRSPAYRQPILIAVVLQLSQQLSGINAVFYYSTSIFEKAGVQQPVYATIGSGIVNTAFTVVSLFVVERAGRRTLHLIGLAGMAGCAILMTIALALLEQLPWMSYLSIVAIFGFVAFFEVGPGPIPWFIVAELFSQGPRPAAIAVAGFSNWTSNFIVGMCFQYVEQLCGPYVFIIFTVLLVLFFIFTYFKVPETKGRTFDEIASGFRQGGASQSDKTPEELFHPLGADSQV
# GLUT1 [3] = target: T2, GLUT1; conditions: literature statement; cited from earlier work; remark: listed apart in the source
# adenylate cyclase = conditions: literature statement; cited from earlier work
# tyrosine kinases = conditions: literature statement; by blocking the ATP binding site; cited from earlier work
# [4] = mice diabetic 2 months, 1,9-dideoxyforskolin 1 mg/kg daily IP, 5 hr after last dose, vs untreated diabetics
SMILES,"retinal glucose levels (GLUT1 [1]; 1,9-dideoxyforskolin 0.1 mg/kg/day IP, 2 or 4 weeks, vs untreated diabetics)",glucose levels in RBCs (GLUT1 [1]; [4]),glucose levels in brain (GLUT1 [1]; [4]),glucose levels in retina (GLUT1 [1]; [4]),retinal glucose (summary statement) (GLUT1 [1]),increase of superoxide radicals (hydroethidine-induced fluorescence) in retinal homogenates (superoxide radicals),GLUT1 glucose transport (GLUT1 [2]),binding to GLUT1 (GLUT1 [3]),adenylate cyclase stimulation (adenylate cyclase),"retinal glucose levels (GLUT1 [1]; genistein 50 mg/kg/day IP, 4 weeks, vs untreated diabetics)",tyrosine kinase inhibition (tyrosine kinases)
"C=C[C@@]1(C)CC(=O)[C@@H]2[C@@]3(C)CCCC(C)(C)[C@@H]3[C@H](O)[C@H](OC(C)=O)[C@@]2(C)O1 [1,9-dideoxyforskolin]",significantly reduced retinal glucose levels; also recorded: significant reduction in retinal glucose level,significant reduction; also recorded: decreased glucose levels,not in brain; also recorded: did not effect glucose levels,significant reduction; also recorded: decreased glucose levels,equivalent effect to that of forskolin,significantly blocked,blocks GLUT1-mediated glucose transport,binds GLUT1,lacks adenylate cyclase-stimulating activity,,
O=c1c(-c2ccc(O)cc2)coc2cc(O)cc(O)c12 [genistein],,,,,significantly reduced retinal glucose to the same levels seen in non-diabetics,,suppresses glucose transport,binds to the ATP binding site of GLUT1,,significantly reduced retinal glucose levels; also recorded: significant reduction in retinal glucose level,inhibits tyrosine kinases
O=c1c(O)c(-c2cc(O)c(O)c(O)c2)oc2cc(O)cc(O)c12 [myricetin],,,,,,,,binds to the ATP binding site of GLUT1,,,
